This is an account of results in patent publication US11485792B2, “Antibodies, uses thereof and conjugates thereof” (Polytherics Limited, priority 2016, dated 2022).

Where two headings read alike, the source gives them in different places. Where a SMILES comes first, the peptide text is derived from it. [ ]: non-standard residue; d: D form. The star is where a group is joined. Dolaproine = CO[C@@H]([C@@H]1CCCN1)[C@@H](C)C(=O)O; Dil = CC[C@H](C)[C@H](NC)[C@@H](CC(=O)O)OC; X1 = C[C@@H](N*)[C@@H](O)c1ccccc1; NMeV = CN[C@H](C(=O)O)C(C)C

The subject of one data set is C4-2 cells. The data set is described as follows: In vitro cell viability assay (CellTiter Glo), C4-2. The note with it: Example 16; PSMA-positive C4-2, 96 h. The class given is cell-based, human. The source says: (§1) The protocol describes cell seeding, drug treatment and determination of the cell viability in reference to untreated cells based on ATP synthesis, which is directly related to the number of cells present in the well.
A general note: Cellular ATP, detected with luciferase, serves as a proxy for viable cell number.

The test system of the next data set is LNCaP cells. The class given is cell-based.
Description: as §1

Another data set has as its system PC-3 cells. The data set is described as follows: In vitro cell viability assay (CellTiter Glo), PC-3 (PSMA-negative control). The class given is cell-based. As to conditions: Example 16; PSMA-negative PC-3 (negative control), 96 h. An excerpt: Loss of tumour cell viability following treatment with cytotoxic drugs or ADCs in vitro can be measured by growing cell lines in the presence of increasing concentrations of drugs or ADCs and quantifying the loss of proliferation or metabolic activity using CellTiter Glo® Luminescence reagent (Promega Corp. Technical Bulletin TB288; Lewis Phillips G. D, Cancer Res 2008; 68:9280-9290). The protocol describes cell seeding, drug treatment and determination of the cell viability in reference to untreated cells based on ATP synthesis, which is directly related to the number of cells present in the well.
PSMA-positive LNCaP (clone FGC) and C4-2 cells, as well as PSMA-negative PC-3 cells were detached with TrypLE and resuspended in complete medium. Cells were counted using disposable Neubauer counting chambers and cell density adjusted to 10×10^4 cells/mL for LNCaP, 2×10^4 cells/mL for C4-2 and 1×10^4 cells/mL for PC-3 respectively. […]
The cell viability assay was carried out using the Cell-Titer Glo® Luminescence reagent, as described by the manufacturer's instructions, (Promega Corp. Technical Bulletin TB288; Lewis Phillips G. D, Cancer Res 2008; 68:9280-9290). Luminescence was recorded using a plate reader (e.g. Molecular Devices Spectramax M3 plate reader), and data subsequently analysed using a four parameter non-linear regression model. […]

The nature of data set [1]: Heat stress test with SEC analysis of aggregation. The class given is physicochemical. As to the method: Antibody samples (0.5 mg/mL in PBS) were incubated at 75° C. for 30 min followed by incubation in an ice-bath for 5 min prior to being analysed for their extent of aggregation. Analysis of antibody solutions was carried out by Size Exclusion Chromatography (SEC) and by turbidity measurements.
SEC was performed using a TOSOH Bioscience TSK gel Super SW 3000 column. UV absorbance at 280 nm was monitored during an isocratic elution with a 0.2 M Potassium phosphate buffer, pH 6.8 (0.2 M potassium chloride and 15% isopropanol). The elution times and number of peaks indicate whether the sample contains aggregated, degraded or native antibody. The % area under the curve (Abs280) was used to determine the quantity of each species present in the SEC analysis.
In general terms: In gel filtration, larger molecules generally elute earlier.

Where [2] appears, read: post stress test: 0.5 mg/mL in PBS, 75° C. for 30 min, then ice-bath 5 min, SEC.

By IC50 is commonly meant the concentration that inhibits the measured activity by half. High values mean weaker potency in that assay, low ones greater potency in that assay. `COc1cc2cc(c1Cl)N(C)C(=O)C[C@H](OC(=O)[C@H](C)N(C)C(=O)CCCCCN)[C@]1(C)O[C@H]1[C@H](C)[C@@H]1C[C@@](O)(NC(=O)O1)[C@H](OC)/C=C/C=C(\C)C2` [AHX-DM1]: the IC50 was 57 nM in the data set on C4-2 cells; 341 nM in the data set with LNCaP cells (Example 16, PSMA-positive LNCaP, 96 h); greater than 1000 nM with PC-3 cells.
In the case of `CC[C@H](C)[C@@H]([C@@H](CC(=O)N1CCC[C@H]1[C@H](OC)[C@@H](C)C(=O)N[C@H](C)[C@@H](O)c1ccccc1)OC)N(C)C(=O)[C@@H](NC(=O)[C@@H](NC)C(C)C)C(C)C` [MMAE] (H-[NMeV]V[Dil][Dolaproine]-X1), the IC50 in the data set with C4-2 cells came out at 0.28 nM; in the data set with LNCaP cells (Example 14, LNCaP, 96 h incubation), 0.81 nM; with PC-3 cells it was 8.2 nM.
As to “AB-22: de-immunised J591 anti-PSMA antibody, SEQ ID No 25 and 26; prior art comparator”, in data set [1] (setting [2]), the “Ab in aggregated form (%)” value stood at 100% and the “Ab in native conformation (%)” value came to 0%. Further, the “stability in heat stress SEC analysis (in words)” value in data set [1] (propensity to aggregate upon heating and cooling) is reported as “less stable than AB-03”.
